{"source": "ChEMBL document CHEMBL1142751", "about": "“Synthesis and biological activity of mustard derivatives of combretastatins” (Bioorg Med Chem Lett, 2005)"}
{"system": "SH-SY5Y", "test": "Inhibitory concentration against Human SH-SY5Y neuroblastoma cells", "format": "functional, cell-based", "units": {"IC50": "nM"}}
{"smiles": "COc1ccc(/C=C\\c2cc(OC)c(OC)c(OC)c2)cc1OCCN(CCCl)CCCl", "IC50": 230}
{"smiles": "COc1ccc(/C=C\\c2cc(OC)c(OC)c(OC)c2)cc1OC(=O)CCCc1ccc(N(CCCl)CCCl)cc1", "IC50": 0.64}
{"smiles": "COc1ccc(/C=C\\c2cc(OC)c(OC)c(OC)c2)cc1N(CCO)CCO", "IC50": "> 10000"}
{"smiles": "COc1ccc(/C=C\\c2cc(OC)c(OC)c(OC)c2)cc1N(CCCl)CCCl", "IC50": 860}
{"smiles": "COc1ccc(/C=C\\c2cc(OC)c(OC)c(OC)c2)cc1O", "note": "[COMBRETASTATIN A4]", "IC50": 1.5}
